Measurements taken from patent US8816052B2, “Mutant apoprotein of photoprotein with low calcium sensitivity” (JNC Corporation, priority 2011, dated 2014).

T1: Native Aequorin (Aequorea victoria, UniProt P02592)
T1 construct: His tag (from the vector name piP-His-HE); made in house
T1 sequence (P02592 9-196 limits assumed): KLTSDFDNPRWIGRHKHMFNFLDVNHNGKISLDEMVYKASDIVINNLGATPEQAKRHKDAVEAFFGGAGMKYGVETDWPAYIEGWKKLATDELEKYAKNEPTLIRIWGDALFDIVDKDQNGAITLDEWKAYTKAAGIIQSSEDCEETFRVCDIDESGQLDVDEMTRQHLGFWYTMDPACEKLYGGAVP


How the values were obtained:
Format in all cases: biochemical
Native Aequorin = molecular target: T1, Native Aequorin; experiment: Substrate specificity: semi-synthetic aequorin from coelenterazine analogue and purified apoaequorin; settings: for Luminescence Intensity for 60 Secs: CTZ = 100; for Relative Luminescence Intensity: CTZ = 100, 50 mM calcium solution
Protocol: (§1) AM20 was prepared to examine the properties. Specifically, 1 ml of 30 mM Tris-HCl (pH 7.6) containing 10 mM EDTA was mixed with 2-mercaptoethanol (1 μl) and a solution of the coelenterazine analogue (1 μg/μl) dissolved in ethanol. Then, 10 μl of the purified apoaequorin or recombinant mutant apoaequorin AM20 was added to the mixture, which was allowed to stand on ice (4° C.) for 5 hours to perform the regeneration reaction. […] The half decay time was determined from the luminescence patterns.

Mutant Aequorin AM20 = molecular target: T2, Mutant Aequorin AM20 (Aequorea victoria, UniProt P02592, H34Q/K37A/N33D/S39T/V32K); settings: for Half Decay Time / Luminescence Intensity for 60 Secs / Relative Luminescence Intensity: Mutant Aequorin AM20; for Luminescence Intensity for 60 Secs / Relative Luminescence Intensity: CTZ = 100; for Relative Luminescence Intensity: 50 mM calcium solution; for half decay time of the luminescence of the semi-synthetic aequorin: analogue as light-emitting substrate, statement in words
T2 construct: OmpA secretory signal peptide (N); histidine tag (N); made in house; host or cells: Escherichia coli strain WA802
T2 sequence (P02592 9-196 V32K/N33D/H34Q/K37A/S39T): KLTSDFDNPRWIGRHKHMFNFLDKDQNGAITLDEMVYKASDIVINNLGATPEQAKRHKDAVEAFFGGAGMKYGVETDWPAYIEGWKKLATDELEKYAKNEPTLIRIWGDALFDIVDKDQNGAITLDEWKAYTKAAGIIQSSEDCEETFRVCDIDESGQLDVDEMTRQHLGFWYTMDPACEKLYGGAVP
Protocol: as §1

[1] = Luminescence activity and half decay time of mutant aequorins regenerated from E. coli extracts; settings: E. coli JM83 extract regenerated with coelenterazine, final calcium 25 mM
Protocol: To express in Escherichia coli the mutant apoaequorin expression vector having the replaced other EF hand loop sequence which was constructed in (2) above, the mutant apoaequorin expression vector was transfected to Escherichia coli JM83 in a conventional manner. The transformants obtained were inoculated into 10 ml of LB liquid medium (10 g of bacto-tryptone, 5 g of yeast extract and 5 g of sodium chloride, per liter of water, pH 7.2) containing ampicillin (50 μg/ml) and cultured at 37° C. for 18 hours. […] Subsequently, 2-mercaptoethanol (1 μl) (manufactured by Wako Pure Chemical Industry) and a solution of substrate coelenterazine in ethanol (1 μg/μl) (JNC Corporation, hereinafter the same) were mixed with the recombinant mutant apoaequorin extract. The mixture was allowed to stand on ice (4° C.) for 18 hours thereby to regenerate into the mutant aequorin. […] The final calcium level in the reaction solution was 25 mM. The luminescence activity was expressed by relative activity (%) to the maximum intensity (Imax).

Molecule	Half Decay Time (Native Aequorin) [s]	Luminescence Intensity for 60 Secs (Native Aequorin) [%]	Relative Luminescence Intensity (Native Aequorin) [%]	Half Decay Time (Mutant Aequorin AM20) [s]	Luminescence Intensity for 60 Secs (Mutant Aequorin AM20) [%]	Relative Luminescence Intensity (Mutant Aequorin AM20) [%]	half decay time of the luminescence of the semi-synthetic aequorin (Mutant Aequorin AM20)	Relative Luminescence Activity ([1]; 50 mM calcium solution added, measured 30 seconds, relative to maximum intensity (Imax)) [%]	Half Decay Time ([1]; time until luminescence reaches half of maximum intensity) [s]
Oc1ccc(Cc2nc3c(Cc4ccccc4)nc(-c4ccc(O)cc4)cn3c2O)cc1 [CTZ, coelenterazine]	0.81	100	100	14.12	100	100	–	–	–
COc1cccc(Cc2nc3c(Cc4ccccc4)[nH]c(-c4ccc(O)cc4)cn-3c2=O)c1 [3meo-CTZ, 3meo-coelenterazine]	0.52	35.6	64.9	1.43	25.0	266	–	–	–
et-coelenterazine [et-CTZ]	1.21	44.1	27.3	1.94	33.6	56.7	–	–	–
O=c1c(Cc2ccc(C(F)(F)F)cc2)nc2c(Cc3ccccc3)[nH]c(-c3ccc(O)cc3)cn1-2 [cf3-CTZ, cf3-coelenterazine]	5.95	48.6	6.3	>60	18.6	7.5	extremely prolonged	–	–
Cc1ccc(Cc2nc3c(Cc4ccccc4)[nH]c(-c4ccc(O)cc4)cn-3c2=O)cc1 [me-CTZ, me-coelenterazine]	5.00	45.0	5.8	>60	15.4	6.8	extremely prolonged	–	–
i-coelenterazine [i-CTZ]	11.42	65.3	5.0	>60	9.8	3.6	extremely prolonged	–	–
Cc1cccc(Cc2nc3c(Cc4ccccc4)[nH]c(-c4ccc(O)cc4)cn-3c2=O)c1 [3me-CTZ, 3me-coelenterazine]	0.51	21.2	35.0	3.69	35.5	125	–	–	–
n-coelenterazine [n-CTZ]	4.71	24.0	3.6	44.04	1.9	1.0	extremely prolonged	–	–
O=c1c(Cc2ccccc2)nc2c(CC3CCCC3)[nH]c(-c3ccc(O)cc3)cn1-2 [hcp-CTZ, hcp-coelenterazine]	0.51	14.3	20.5	0.61	7.6	187	–	–	–
Oc1ccc(-c2cn3c(O)c(Cc4ccccc4)nc3c(Cc3ccccc3)n2)cc1 [h-CTZ, h-coelenterazine]	0.69	70.1	87.9	2.98	45.4	220	–	–	–
COc1ccc(Cc2nc3c(Cc4ccccc4)[nH]c(-c4ccc(O)cc4)cn-3c2=O)cc1 [meo-CTZ, meo-coelenterazine]	1.63	60.1	22.3	18.35	35.6	26.6	extremely prolonged	–	–
Bis-coelenterazine [Bis-CTZ]	–	0.0	0.0	–	0.0	0.0	–	–	–
ameh-coelenterazine [αmeh-CTZ]	0.35	0.9	2.2	0.61	0.9	19.4	–	–	–
O=c1c(Cc2cccc(O)c2)nc2c(Cc3ccccc3)[nH]c(-c3ccc(O)cc3)cn1-2 [3iso-CTZ, 3iso-coelenterazine]	0.24	13.4	51.6	0.66	9.2	224	–	–	–
pAM2 + X: aequorin expressed with vector pAM2+X; EF hand loop [I] DVNHNGKISLDE (SEQ ID NO: 13); native aequorin reference (protein) MTMITPSCKLTSDFDNPRWIGRHKHMFNFLDVNHNGKISLDEMVYKASDIVINNLGATPEQAKRHKDAVEAFFGGAGMKYGVETDWPAYIEGWKKLATDELEKYAKNEPTLIRIWGDALFDIVDKDQNGAITLDEWKAYTKAAGIIQSSEDCEETFRVCDIDESGQLDVDEMTRQHLGFWYTMDPACEKLYGGAVP	–	–	–	–	–	–	–	100.0	1.3
